Measurements as given in ChEMBL document CHEMBL6153079, “Discovery of noncovalent diaminopyrimidine-based Inhibitors for glioblastoma via a dual FAK/DNA targeting strategy” (Eur J Med Chem, 2025).
pIC50: −log10 of the molar value. Calls of active or inactive are those of the source. The calls are words filed in the database; no cut-off is given here.

Key:
U-87 MG [1] = test: Induction of apoptosis in human U-87 MG cells assessed as viable cells at 8 uM measured upto 24 hrs by Annexin V-FITC/PI staining based flow cytometry analysis (reference value: 98.4%); type: functional, U-87MG ATCC; conditions: read-out: Activity
U-87 MG [2] = test: Induction of apoptosis in human U-87 MG cells assessed as late apoptotic cells at 4 uM measured upto 24 hrs by Annexin V-FITC/PI staining based flow cytometry analysis (reference value: 0.54%); type: functional, U-87MG ATCC
U-251 = test: Antiproliferative activity against human U-251 assessed as cell viability incubated for 48 hrs by MTT assay; type: functional, cell-based; conditions: U-251, 48 h
U-87 MG [3] = test: Induction of cell cycle arrest in human U-87 MG cells assessed as accumulation of cells at […] at 4 uM by propidium Iodide staining based flow cytometry analysis (reference value: 1.67%); type: functional, U-87MG ATCC
U-87 MG [4] = test: Antiproliferative activity against human U-87 MG assessed as inhibition of cell growth at 0.025 to 0.1 uM in presence of Chlorambucil by clonogenic assay relative to control; type: functional, U-87MG ATCC; conditions: dose 0.025-0.1 µM
U-87 MG [5] = test: Induction of apoptosis in human U-87 MG cells assessed as necrotic cells at 8 uM measured upto 24 hrs by Annexin V-FITC/PI staining based flow cytometry analysis (reference value: 0.62%); type: functional, U-87MG ATCC
U-87 MG [6] = test: Induction of apoptosis in human U-87 MG cells assessed as viable cells at 4 uM measured upto 24 hrs by Annexin V-FITC/PI staining based flow cytometry analysis (reference value: 98.4%); type: functional, U-87MG ATCC; conditions: read-out: Activity
U-87 MG [7] = test: Induction of cell cycle arrest in human U-87 MG cells assessed as accumulation of cells at G2M phase at 4 uM by propidium Iodide staining based flow cytometry analysis (reference value: 9.73%); type: functional, U-87MG ATCC
[8] = Distribution coefficient, logD of compound in n-Octanol/water at pH 7.4; type: physicochemical
[9] = Cytotoxicity against human 2BS assessed as cell viability incubated for 48 hrs by MTT assay; type: toxicity, cell-based; conditions: 2BS cells
U-87 MG [10] = test: Induction of apoptosis in human U-87 MG cells assessed as […] in cleaved caspase-3 level at 0.05 to 0.8 uM incubated for 24 hrs by Western blot analysis; type: functional, cell-based; conditions: U-87MG ATCC, dose 0.05-0.8 µM
U-87 MG [11] = test: Inhibition of colony formation in human U-87 MG cells at 0.005 uM incubated for 14 days and subsequent media replacement with compound for every 3 days by crystal violet staining based analysis; type: functional, cell-based; conditions: U-87MG ATCC, time 14.0 day
U-87 MG [12] = test: Induction of cell cycle arrest in human U-87 MG cells assessed as accumulation of cells at S phase at 8 uM by propidium Iodide staining based flow cytometry analysis (reference value: 9.59%); type: functional, U-87MG ATCC
U-87 MG [13] = test: Induction of cell cycle arrest in human U-87 MG cells assessed as accumulation of cells at S phase at 2 uM by propidium Iodide staining based flow cytometry analysis (reference value: 9.59%); type: functional, U-87MG ATCC
U-87 MG [14] = test: Inhibition of ERK1/2 phosphorylation in human U-87 MG cells at 0.05 to 0.4 uM incubated for 24 hrs by Western blot analysis; type: cell-based; conditions: dose 0.05-0.4 µM
U-87 MG [15] = test: Antiproliferative activity against human U-87 MG assessed as inhibition of cell growth at 0.005 uM by clonogenic assay relative to control; type: functional, U-87MG ATCC
U-87 MG [16] = test: Induction of apoptosis in human U-87 MG cells assessed as viable cells at 2 uM measured upto 24 hrs by Annexin V-FITC/PI staining based flow cytometry analysis (reference value: 98.4%); type: functional, U-87MG ATCC; conditions: read-out: Activity
U-87 MG [17] = test: Induction of apoptosis in human U-87 MG cells assessed as late apoptotic cells at 2 uM measured upto 24 hrs by Annexin V-FITC/PI staining based flow cytometry analysis (reference value: 0.54%); type: functional, U-87MG ATCC
U-87 MG [18] = test: Induction of apoptosis in human U-87 MG cells assessed as early apoptotic cells at 2 uM measured upto 24 hrs by Annexin V-FITC/PI staining based flow cytometry analysis (reference value: 0.45%); type: functional, U-87MG ATCC
U-87 MG [19] = test: Induction of DNA damage in human U-87 MG cells assessed as comet tail moment at 0.1 to 2 uM incubated for 2.5 to 3 hrs by comet assay; type: functional; conditions: time 2.5-3 hrs
U-87 MG [20] = test: Induction of apoptosis in human U-87 MG cells assessed as […] in Bcl-xL level at 0.05 to 0.8 uM incubated for 24 hrs by Western blot analysis; type: functional, cell-based; conditions: U-87MG ATCC, dose 0.05-0.8 µM
U-87 MG [21] = test: Antiproliferative activity against human U-87 MG assessed as inhibition of cell growth at 0.025 to 0.1 uM by clonogenic assay relative to control; type: functional, U-87MG ATCC; conditions: dose 0.025-0.1 µM
U-87 MG [22] = test: Induction of apoptosis in human U-87 MG cells assessed as necrotic cells at 2 uM measured upto 24 hrs by Annexin V-FITC/PI staining based flow cytometry analysis (reference value: 0.62%); type: functional, U-87MG ATCC
U-87 MG [23] = test: Induction of cell cycle arrest in human U-87 MG cells assessed as accumulation of cells at G0/G1 phase at 2 uM by propidium Iodide staining based flow cytometry analysis (reference value: 80.68%); type: functional, U-87MG ATCC
[24] = Cytotoxicity against human LO2 assessed as cell viability incubated for 48 hrs by MTT assay; type: toxicity, cell-based, L02; conditions: LO2 cells
U-87 MG [25] = test: Antiproliferative activity against human U-87 MG assessed as cell viability incubated for 48 hrs by MTT assay; type: functional, cell-based, U-87MG ATCC
U-87 MG [26] = test: Induction of cell cycle arrest in human U-87 MG cells assessed as accumulation of cells at S phase at 4 uM by propidium Iodide staining based flow cytometry analysis (reference value: 9.59%); type: functional, U-87MG ATCC
U-87 MG [27] = test: Antiproliferative activity against human U-87 MG assessed as inhibition of cell growth at 0.005 uM in presence of Chlorambucil by clonogenic assay relative to control; type: functional, U-87MG ATCC
Focal adhesion kinase 1 [28] = molecular target: T1, Focal adhesion kinase 1 (Homo sapiens, UniProt Q05397); test: Inhibition of FAK (unknown origin) at 10 nM relative to control
U-87 MG [29] = test: Induction of apoptosis in human U-87 MG cells assessed as necrotic cells at 4 uM measured upto 24 hrs by Annexin V-FITC/PI staining based flow cytometry analysis (reference value: 0.62%); type: functional, U-87MG ATCC
U-87 MG [30] = test: Induction of cell cycle arrest in human U-87 MG cells assessed as accumulation of cells at […] at 2 uM by propidium Iodide staining based flow cytometry analysis (reference value: 1.67%); type: functional, U-87MG ATCC
U-87 MG [31] = test: Induction of apoptosis in human U-87 MG cells assessed as early apoptotic cells at 4 uM measured upto 24 hrs by Annexin V-FITC/PI staining based flow cytometry analysis (reference value: 0.45%); type: functional, U-87MG ATCC
Focal adhesion kinase 1 [32] = molecular target: T1, Focal adhesion kinase 1; test: Inhibition of FAK phosphorylation in human U-87 MG cells at 0.05 to 0.4 uM incubated for 24 hrs by Western blot analysis; type: cell-based; conditions: dose 0.05-0.4 µM
U-87 MG [33] = test: Inhibition of cell migration in human U-87 MG cells assessed as […] at 0.1 to 1 uM by wound healing assay; type: functional, cell-based; conditions: U-87MG ATCC, dose 0.1-1 µM, time lower 24.0 hrs, time upper […]
U-87 MG [34] = test: Inhibition of AKT phosphorylation in human U-87 MG cells at 0.05 to 0.4 uM incubated for 24 hrs by Western blot analysis; type: cell-based; conditions: dose 0.05-0.4 µM
U-87 MG [35] = test: Inhibition of colony formation in human U-87 MG cells at 0.005 uM incubated for 14 days and subsequent media replacement with compound for every 3 days in presence of Chlorambucil by crystal violet staining based analysis; type: functional, cell-based; conditions: U-87MG ATCC, time 14.0 day
U-87 MG [36] = test: Inhibition of cell migration in human U-87 MG cells assessed as […] in migration distance at 0.1 to 1 uM incubated for 24 to 48 hrs by wound healing assay; type: functional, cell-based; conditions: U-87MG ATCC, dose 0.1-1 µM, time lower 24.0 hrs, time upper […]
U-87 MG [37] = test: Induction of cell cycle arrest in human U-87 MG cells assessed as accumulation of cells at G0/G1 phase at 4 uM by propidium Iodide staining based flow cytometry analysis (reference value: 80.68%); type: functional, U-87MG ATCC
U-87 MG [38] = test: Induction of cell cycle arrest in human U-87 MG cells assessed as accumulation of cells at G0/G1 phase at 8 uM by propidium Iodide staining based flow cytometry analysis (reference value: 80.68%); type: functional, U-87MG ATCC
U-87 MG [39] = test: Induction of cell cycle arrest in human U-87 MG cells assessed as accumulation of cells at […] at 8 uM by propidium Iodide staining based flow cytometry analysis (reference value: 1.67%); type: functional, U-87MG ATCC
U-87 MG [40] = test: Induction of cell cycle arrest in human U-87 MG cells assessed as accumulation of cells at G2M phase at 8 uM by propidium Iodide staining based flow cytometry analysis (reference value: 9.73%); type: functional, U-87MG ATCC
U-87 MG [41] = test: Induction of apoptosis in human U-87 MG cells assessed as early apoptotic cells at 8 uM measured upto 24 hrs by Annexin V-FITC/PI staining based flow cytometry analysis (reference value: 0.45%); type: functional, U-87MG ATCC
U-87 MG [42] = test: Induction of cell cycle arrest in human U-87 MG cells assessed as accumulation of cells at G2M phase at 2 uM by propidium Iodide staining based flow cytometry analysis (reference value: 9.73%); type: functional, U-87MG ATCC
U-87 MG [43] = test: Induction of apoptosis in human U-87 MG cells assessed as late apoptotic cells at 8 uM measured upto 24 hrs by Annexin V-FITC/PI staining based flow cytometry analysis (reference value: 0.54%); type: functional, U-87MG ATCC
[44] = Toxicity in BALB/c mouse implanted with human U-87 MG cells assessed as spleen damage at 25 mg/kg, ip administered once daily for 15 days by H and E staining based analysis; type: organism-based; conditions: in vivo, 360 h, time 15 day
[45] = Toxicity in BALB/c mouse implanted with human U-87 MG cells assessed as lung damage at 25 mg/kg, ip administered once daily for 15 days by H and E staining based analysis; type: organism-based; conditions: in vivo, 360 h, time 15 day
U-87 MG [46] = test: Antitumor activity against human U-87 MG cells xenografted in BALB/c mouse assessed as inhibition of tumor growth at 25 mg/kg, ip administered once daily for 15 days; type: functional, U-87MG ATCC; conditions: 360 h, time 15 day, read-out: TGI

T1 sequence (Q05397 2-1052 limits assumed): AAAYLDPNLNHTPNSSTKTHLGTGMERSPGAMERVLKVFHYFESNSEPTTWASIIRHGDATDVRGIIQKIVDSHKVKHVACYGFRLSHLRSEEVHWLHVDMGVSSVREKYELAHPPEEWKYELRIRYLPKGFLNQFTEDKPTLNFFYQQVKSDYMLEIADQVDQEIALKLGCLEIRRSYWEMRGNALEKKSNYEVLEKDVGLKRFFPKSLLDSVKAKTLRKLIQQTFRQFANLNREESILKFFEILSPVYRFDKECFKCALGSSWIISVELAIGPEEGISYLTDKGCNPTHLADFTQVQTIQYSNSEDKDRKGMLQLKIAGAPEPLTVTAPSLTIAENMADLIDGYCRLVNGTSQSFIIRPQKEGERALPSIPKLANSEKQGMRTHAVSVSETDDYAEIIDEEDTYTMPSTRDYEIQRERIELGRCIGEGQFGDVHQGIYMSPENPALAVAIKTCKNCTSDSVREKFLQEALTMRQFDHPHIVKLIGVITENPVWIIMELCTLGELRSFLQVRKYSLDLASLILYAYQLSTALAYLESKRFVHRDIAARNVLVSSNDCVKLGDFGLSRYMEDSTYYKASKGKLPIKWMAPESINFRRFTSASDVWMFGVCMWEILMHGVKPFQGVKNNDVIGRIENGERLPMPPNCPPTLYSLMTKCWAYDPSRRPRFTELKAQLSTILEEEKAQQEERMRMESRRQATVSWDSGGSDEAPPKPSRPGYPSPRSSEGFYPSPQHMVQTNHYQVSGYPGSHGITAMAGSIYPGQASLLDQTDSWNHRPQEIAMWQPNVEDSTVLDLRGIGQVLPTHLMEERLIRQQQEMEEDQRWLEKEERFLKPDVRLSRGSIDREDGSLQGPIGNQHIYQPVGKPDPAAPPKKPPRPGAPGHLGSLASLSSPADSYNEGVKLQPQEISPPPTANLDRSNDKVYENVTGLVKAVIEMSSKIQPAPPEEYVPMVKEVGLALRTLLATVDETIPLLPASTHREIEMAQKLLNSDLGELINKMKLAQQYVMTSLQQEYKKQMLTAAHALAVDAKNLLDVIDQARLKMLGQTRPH

SMILES: CNC(=O)c1ccccc1Nc1nc(Nc2ccc(N3CCOCC3)cc2OC)ncc1Cl
- viability at 8 µM (U-87 MG [1]): 61.2%
- Activity (U-87 MG [2]): 4.35%
- pIC50 (U-251): 5.23
- Activity (U-87 MG [3]): 1.81%
- inhibition (INH) (U-87 MG [4]): 61%
- Activity (U-87 MG [5]): 0.31%
- viability at 4 µM (U-87 MG [6]): 78.2%
- Activity (U-87 MG [7]): 23.91%
- logD [8]: 3.49
- IC50 at 48 h [9]: 42.8 µM
- Activity (U-87 MG [10]): Active
- inhibition (U-87 MG [11]): inactive
- Activity (U-87 MG [12]): 3.66%
- Activity (U-87 MG [13]): 12.83%
- inhibition (U-87 MG [14]): inactive
- inhibition at 0.005 µM (U-87 MG [15]): ~8%
- viability at 2 µM (U-87 MG [16]): 84.3%
- Activity (U-87 MG [17]): 9.29%
- Activity (U-87 MG [18]): 2.78%
- Activity (U-87 MG [19]; U-87MG ATCC): inactive
- Activity (U-87 MG [20]): Active
- inhibition (INH) (U-87 MG [21]): 60%
- Activity (U-87 MG [22]): 3.64%
- Activity (U-87 MG [23]): 72.55%
- IC50 at 48 h [24]: 4.14 µM
- pIC50 (U-87 MG [25]): 5.55
- Activity (U-87 MG [26]): 19.73%
- inhibition at 0.005 µM (U-87 MG [27]): 12%
- inhibition (Focal adhesion kinase 1 [28]): 78.6%
- Activity (U-87 MG [29]): 6.39%
- Activity (U-87 MG [30]): 1.75%
- Activity (U-87 MG [31]): 11%
- inhibition (Focal adhesion kinase 1 [32]): inactive
- inhibition (U-87 MG [33]): Time-dependent-effect
- inhibition (U-87 MG [34]): inactive
- inhibition (U-87 MG [35]): inactive
- inhibition (U-87 MG [36]): Active
- Activity (U-87 MG [37]): 56.37%
- Activity (U-87 MG [38]): 33.93%
- Activity (U-87 MG [39]): 1.84%
- Activity (U-87 MG [40]): 62.41%
- Activity (U-87 MG [41]): 26.2%
- Activity (U-87 MG [42]): 14.62%
- Activity (U-87 MG [43]): 12.3%

SMILES: Cn1nnc2c(C(N)=O)ncn2c1=O [TEMOZOLOMIDE]
- Activity [44]: Non-toxic
- Activity [45]: Non-toxic
- Activity (U-87 MG [19]): 11.6
- inhibition in vivo at 25 mg/kg (U-87 MG [46]): 31.4%
